Results from ChEMBL document CHEMBL3217615, “Novel 3,5-bis(arylidiene)-4-piperidone based monocarbonyl analogs of curcumin: anticancer activity evaluation and mode of action study” (2014).

What was measured:
Format in all cases: functional
HL-60(TB) = assay: Growth inhibition of human HL-60(TB) cells assessed as cell growth at 10^-6 M after 48 hrs by sulforhodamine B assay; conditions: HL-60, 48 h, read-out: Activity
HCT-116 = assay: Growth inhibition of human HCT116 cells assessed as cell growth at 10^-8 M after 48 hrs by sulforhodamine B assay; conditions: HCT-116, 48 h; for growth at 0.01 µM: read-out: Activity; for TGI: read-out: pTGI (converted)
[1] = Growth inhibition of human OVCAR5 cells after 48 hrs by sulforhodamine B assay; conditions: OVCAR-5, 48 h; for CC50: read-out: LC50 (the source's name)
NCI-H23 = assay: Growth inhibition of human NCI-H23 cells assessed as cell growth at 10^-6 M after 48 hrs by sulforhodamine B assay; conditions: NCI-H23, 48 h, read-out: Activity
A498 [2] = assay: Growth inhibition of human A498 cells assessed as cell growth at 10^-7 M after 48 hrs by sulforhodamine B assay; conditions: A498, 48 h, read-out: Activity
CAKI-1 = assay: Growth inhibition of human CAKI-1 cells assessed as cell growth at 10^-6 M after 48 hrs by sulforhodamine B assay; conditions: CAKI-1, 48 h, read-out: Activity
SNB-19 = assay: Growth inhibition of human SNB19 cells assessed as cell growth at 10^-8 M after 48 hrs by sulforhodamine B assay; conditions: SNB-19, 48 h; for growth at 0.01 µM: read-out: Activity; for TGI: read-out: pTGI (converted)
KM12 = assay: Growth inhibition of human KM12 cells after 48 hrs by sulforhodamine B assay; conditions: KM12, 48 h; for CC50: read-out: LC50 (the source's name)
RPMI-8226 = assay: Growth inhibition of human RPMI8226 cells assessed as cell growth at 10^-4 M after 48 hrs by sulforhodamine B assay; conditions: RPMI-8226, 48 h, read-out: Activity
COLO 205 = assay: Induction of apoptosis in human COLO205 cells assessed as late apoptosis cells level at 10 uM after 24 hrs by Annexin V/propidium iodide staining-based fluorescence microscopy
T47D [3] = assay: Growth inhibition of human T47D cells after 48 hrs by sulforhodamine B assay; conditions: for CC50: read-out: LC50 (the source's name)
SN12C [4] = assay: Growth inhibition of human SN12C cells assessed as cell growth at 10^-7 M after 48 hrs by sulforhodamine B assay; conditions: read-out: Activity
[5] = Growth inhibition of human OVCAR3 cells assessed as cell growth at 10^-7 M after 48 hrs by sulforhodamine B assay; conditions: OVCAR-3, 48 h, read-out: Activity
[6] = Growth inhibition of human SF539 cells assessed as cell growth at 10^-7 M after 48 hrs by sulforhodamine B assay; conditions: SF-539, 48 h, read-out: Activity
MDA-MB-231 [7] = assay: Growth inhibition of human MDA-MB-231 cells assessed as cell growth at 10^-8 M after 48 hrs by sulforhodamine B assay; conditions: MDA-MB-231, 48 h; for growth at 0.01 µM: read-out: Activity; for TGI: read-out: pTGI (converted)
SN12C [8] = assay: Growth inhibition of human SN12C cells assessed as cell growth at 10^-4 M after 48 hrs by sulforhodamine B assay; conditions: read-out: Activity
A498 [9] = assay: Growth inhibition of human A498 cells assessed as cell growth at 10^-6 M after 48 hrs by sulforhodamine B assay; conditions: A498, 48 h, read-out: Activity
NCI-H522 = assay: Growth inhibition of human NCI-H522 cells assessed as cell growth at 10^-4 M after 48 hrs by sulforhodamine B assay; conditions: NCI-H522, 48 h, read-out: Activity
MDA-MB-231 [10] = assay: Growth inhibition of human MDA-MB-231 cells after 48 hrs by sulforhodamine B assay; conditions: MDA-MB-231, 48 h
[11] = Growth inhibition of human SF295 cells assessed as cell growth at 10^-6 M after 48 hrs by sulforhodamine B assay; conditions: SF-295, 48 h, read-out: Activity
T47D [12] = assay: Growth inhibition of human T47D cells assessed as cell growth at 10^-6 M after 48 hrs by sulforhodamine B assay; conditions: read-out: Activity
SK-MEL-2 = assay: Growth inhibition of human SK-MEL-2 cells assessed as cell growth at 10^-5 M after 48 hrs by sulforhodamine B assay; conditions: SK-MEL-2, 48 h, read-out: Activity
[13] = Growth inhibition of human NCI-ADR-RES cells assessed as cell growth at 10^-7 M after 48 hrs by sulforhodamine B assay; conditions: read-out: Activity
[14] = Growth inhibition of human MOLT4 cells assessed as cell growth at 10^-7 M after 48 hrs by sulforhodamine B assay; conditions: MOLT-4, 48 h, read-out: Activity
T47D [15] = assay: Growth inhibition of human T47D cells assessed as cell growth at 10^-8 M after 48 hrs by sulforhodamine B assay; conditions: for growth at 0.01 µM: read-out: Activity; for CC50: read-out: pLC50 (the source's name) (converted); for TGI: read-out: pTGI (converted)
[16] = Growth inhibition of human OVCAR3 cells assessed as cell growth at 10^-6 M after 48 hrs by sulforhodamine B assay; conditions: OVCAR-3, 48 h, read-out: Activity
HT-29 = assay: Growth inhibition of human HT-29 cells assessed as cell growth at 10^-6 M after 48 hrs by sulforhodamine B assay; conditions: HT-29, 48 h, read-out: Activity
[17] = Growth inhibition of human OVCAR4 cells assessed as cell growth at 10^-4 M after 48 hrs by sulforhodamine B assay; conditions: OVCAR-4, 48 h, read-out: Activity
DU-145 = assay: Growth inhibition of human DU145 cells after 48 hrs by sulforhodamine B assay; conditions: DU-145, 48 h; for CC50: read-out: LC50 (the source's name)
[18] = Growth inhibition of human UACC62 cells assessed as cell growth at 10^-6 M after 48 hrs by sulforhodamine B assay; conditions: UACC-62, 48 h, read-out: Activity
SK-MEL-28 = assay: Growth inhibition of human SK-MEL-28 cells after 48 hrs by sulforhodamine B assay; conditions: SK-MEL-28, 48 h; for CC50: read-out: LC50 (the source's name)
M14 = assay: Growth inhibition of human M14 cells assessed as cell growth at 10^-8 M after 48 hrs by sulforhodamine B assay; conditions: M14, 48 h; for growth at 0.01 µM: read-out: Activity; for CC50: read-out: pLC50 (the source's name) (converted); for TGI: read-out: pTGI (converted)
[19] = Growth inhibition of human HCT15 cells assessed as cell growth at 10^-8 M after 48 hrs by sulforhodamine B assay; conditions: HCT-15, 48 h; for growth at 0.01 µM: read-out: Activity; for TGI: read-out: pTGI (converted)
U-251 = assay: Growth inhibition of human U251 cells assessed as cell growth at 10^-7 M after 48 hrs by sulforhodamine B assay; conditions: U-251, 48 h, read-out: Activity

O=C1/C(=C/c2ccc(Cl)cc2Cl)CN(S(=O)(=O)c2ccccc2)C/C1=C\c1ccc(Cl)cc1Cl
growth at 1 µM (HL-60(TB)): 36% | GI50 (HCT-116): 0.2 µM | LC50 (HCT-116): 0.912 µM | growth at 0.01 µM (HCT-116): 99% | TGI (HCT-116): 0.427 µM | GI50 [1]: 2.13 µM | TGI [1]: 7.43 µM | CC50 [1]: > 100 µM | growth at 1 µM (NCI-H23): 18% | growth at 0.1 µM (A498 [2]): 61% | growth at 1 µM (CAKI-1): 77% | GI50 (SNB-19): 0.316 µM | LC50 (SNB-19): > 100 µM | growth at 0.01 µM (SNB-19): 92% | TGI (SNB-19): 2.88 µM | GI50 (KM12): 0.256 µM | TGI (KM12): 0.602 µM | CC50 (KM12): 25.7 µM | growth at 100 µM (RPMI-8226): -35% | Activity (COLO 205): 18% | GI50 (T47D [3]): 1.28 µM | TGI (T47D [3]): 100 µM | CC50 (T47D [3]): > 100 µM | growth at 0.1 µM (SN12C [4]): 92% | growth at 0.1 µM [5]: 108% | growth at 0.1 µM [6]: 97% | GI50 (MDA-MB-231 [7]): 0.468 µM | growth at 0.01 µM (MDA-MB-231 [7]): 102% | TGI (MDA-MB-231 [7]): 2.14 µM | growth at 100 µM (SN12C [8]): -44% | growth at 1 µM (A498 [9]): 48% | growth at 100 µM (NCI-H522): -56% | GI50 (MDA-MB-231 [10]): 0.466 µM | TGI (MDA-MB-231 [10]): 2.16 µM | growth at 1 µM [11]: 13% | growth at 1 µM (T47D [12]): 55% | growth at 10 µM (SK-MEL-2): 36% | growth at 0.1 µM [13]: 109% | growth at 0.1 µM [14]: 106% | GI50 (T47D [15]): 1.26 µM | growth at 0.01 µM (T47D [15]): 99% | CC50 (T47D [15]): > 100 µM | TGI (T47D [15]): 100 µM | growth at 1 µM [16]: -10% | growth at 1 µM (HT-29): -8% | growth at 100 µM [17]: 15% | GI50 (DU-145): 0.446 µM | TGI (DU-145): 18.8 µM | CC50 (DU-145): > 100 µM | growth at 1 µM [18]: 45% | GI50 (SK-MEL-28): 4.44 µM | TGI (SK-MEL-28): > 100 µM | CC50 (SK-MEL-28): > 100 µM | GI50 (M14): 3.63 µM | growth at 0.01 µM (M14): 102% | CC50 (M14): > 100 µM | TGI (M14): > 100 µM | GI50 [19]: 0.245 µM | LC50 [19]: > 100 µM | growth at 0.01 µM [19]: 95% | TGI [19]: 0.759 µM | growth at 0.1 µM (U-251): 86%

Cc1ccc(S(=O)(=O)N2C/C(=C\c3cc(F)cc(F)c3)C(=O)/C(=C/c3cc(F)cc(F)c3)C2)cc1
growth at 1 µM (HL-60(TB)): 4% | GI50 (HCT-116): 0.209 µM | LC50 (HCT-116): 1.95 µM | growth at 0.01 µM (HCT-116): 107% | TGI (HCT-116): 0.537 µM | GI50 [1]: 1.02 µM | TGI [1]: 2.75 µM | CC50 [1]: 7.4 µM | growth at 1 µM (NCI-H23): 77% | growth at 0.1 µM (A498 [2]): 93% | growth at 1 µM (CAKI-1): 16% | GI50 (SNB-19): 0.219 µM | LC50 (SNB-19): 2.82 µM | growth at 0.01 µM (SNB-19): 87% | TGI (SNB-19): 0.759 µM | GI50 (KM12): 0.327 µM | TGI (KM12): 1 µM | CC50 (KM12): 4.04 µM | growth at 100 µM (RPMI-8226): -50% | Activity (COLO 205): 43% | GI50 (T47D [3]): 1.79 µM | TGI (T47D [3]): 6.09 µM | CC50 (T47D [3]): 54.3 µM | growth at 0.1 µM (SN12C [4]): 94% | growth at 0.1 µM [5]: 112% | growth at 0.1 µM [6]: 93% | GI50 (MDA-MB-231 [7]): 0.269 µM | LC50 (MDA-MB-231 [7]): 8.51 µM | growth at 0.01 µM (MDA-MB-231 [7]): 98% | TGI (MDA-MB-231 [7]): 0.776 µM | growth at 100 µM (SN12C [8]): -96% | growth at 1 µM (A498 [9]): 91% | growth at 100 µM (NCI-H522): -94% | GI50 (MDA-MB-231 [10]): 0.27 µM | TGI (MDA-MB-231 [10]): 0.784 µM | CC50 (MDA-MB-231 [10]; read-out: LC50 (the source's name)): 8.48 µM | growth at 1 µM [11]: 29% | growth at 1 µM (T47D [12]): 74% | growth at 10 µM (SK-MEL-2): -44% | growth at 0.1 µM [13]: 106% | growth at 0.1 µM [14]: 88% | GI50 (T47D [15]): 1.78 µM | growth at 0.01 µM (T47D [15]): 96% | CC50 (T47D [15]): 53.7 µM | TGI (T47D [15]): 6.03 µM | growth at 1 µM [16]: 16% | growth at 1 µM (HT-29): -22% | growth at 100 µM [17]: -81% | GI50 (DU-145): 1.24 µM | TGI (DU-145): 3.08 µM | CC50 (DU-145): 7.62 µM | growth at 1 µM [18]: -38% | GI50 (SK-MEL-28): 0.473 µM | TGI (SK-MEL-28): 1.79 µM | CC50 (SK-MEL-28): 4.82 µM | GI50 (M14): 0.363 µM | growth at 0.01 µM (M14): 103% | CC50 (M14): 5.89 µM | TGI (M14): 1.41 µM | GI50 [19]: 0.251 µM | LC50 [19]: 30.9 µM | growth at 0.01 µM [19]: 91% | TGI [19]: 1.29 µM | growth at 0.1 µM (U-251): 80%
